Data as given in patent US11965039B2, “Compstatin analogues and their medical uses” (priority 2018, dated 2024).
pIC50: −log10 of the molar value. Like-named read-outs stand apart in the source and are kept apart here. Starred links: 1 amine or outer side, 2 acyl side, 3 side chain; linkers in the order of their positions; H or OH if unused. Positions of bridges follow the written chain, without caps; N, C: chain ends. Non-standard residues stand in square brackets, D forms with d. Residues, ends and D or L forms follow the SMILES beside them. Groups on a side chain read outwards from the residue. *: point of attachment. Trp(1-Me) = Cn1cc(C[C@H](N)C(=O)O)c2ccccc21; C16 diacid = O=C(O)CCCCCCCCCCCCCCC(=O)*; γGlu = O=C(O)[C@H](CCC(=O)[*:2])N[*:1]; 2Nal = N[C@@H](Cc1ccc2ccccc2c1)C(=O)O; AEEA = NCCOCCOCC(=O)O; Sar = CNCC(=O)O

Legend:
[1] = system: classical complement pathway; assay: In vitro haemolysis assay (inhibition of classical complement pathway); assay type: cell-based, human; details: human serum, sensitized sheep red blood cells
How it was run: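 Compound dilutions preincubated 15 min at room temperature with diluted human serum (titrated per batch for 70-90% maximal haemolysis), then antibody-sensitized sheep RBC (10^7/well) added for 30 min at 37 °C in Tris/casein buffer, pH 7.4. Stopped with EDTA; haemolysis read at 405 nm; IC50 by 4PL fit.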

[2] = Solubility test at 10 mg/mL (visual inspection and light scattering); assay type: physicochemical; details: for Solubility, Condition 1: Acetate pH 4; for Solubility, Condition 2: Acetate pH 5; for Solubility, Condition 3: Phosphate pH 6; for Solubility, Condition 4: Phosphate pH 7; for Solubility, Condition 5: Phosphate pH 7.5
Procedure: The solubility of compounds was assessed by measuring light scattering over a pH interval from pH 4 to pH 7.5.
Compounds were dissolved in a stock solution of 20 mg/mL in H2O at pH 2.5 or pH 10. These stock solutions were diluted 1:1 with 200 mM buffered solution to reach a final solution of 10 mg/mL compound in 100 mM buffer. The 5 investigated conditions were (1) acetate pH 4.0, (2) acetate pH 5.0, (3) phosphate pH 6.0, (4) phosphate pH 7 and (5) phosphate pH 7.5.
Visual inspection included manually checking the 96 well plate for wells that are clear or non-clear. In addition to this a picture of the 96 well plate is taken.
Absorbance was measured at four wavelengths: 280 nm, 325 nm, 340 nm and 360 nm in an UV transparent 96 well microplate in a SpectraMax 190 microplate reader (Molecular Devices).
The criteria for this was a combination of visual inspection and light scattering not exceeding 0.1 AU, where values below 0.1 AU are good in visually clear samples.

[3] = Table 3, given as upper bounds, read-out: IC50, inhibition of hemolysis

Row | Compound | pIC50 [1, 3] | Solubility, Condition 1 [2] | Solubility, Condition 2 [2] | Solubility, Condition 3 [2] | Solubility, Condition 4 [2] | Solubility, Condition 5 [2] | pIC50 ([1]; Table 2, read-out: CP hemolysis IC50)
1 | CC[C@H](C)[C@@H]1NC(=O)[C@@H](NC(=O)[C@H](Cc2ccc(O)cc2)NC(C)=O)CSSC[C@@H](C(=O)N[C@H](C(=O)NCC(=O)N[C@@H](C)C(=O)N[C@@H](CCC(=O)O)C(=O)N[C@@H](CO)C(N)=O)[C@@H](C)O)NC(=O)[C@H](CCCNC(=N)N)NC(=O)[C@H](Cc2c[nH]cn2)NC(=O)[C@H](CCC(=O)O)NC(=O)CNC(=O)[C@H](Cc2c[nH]c3ccccc23)NC(=O)[C@H](CC(=O)O)NC(=O)[C@H](CCC(N)=O)NC(=O)[C@H](Cc2c[nH]c3ccccc23)NC1=O [Compound 66] (Ac-YCIWQDWGEHRCTGAES-NH2; disulfide 2-12) | > 7.00 | − (“−” denotes lack of solubility at the given condition, as UV absorbance at 340 nm exceeds 0.1 AU and/or it is visibly turbid or contains particles) | − (“−” denotes lack of solubility at the given condition, as UV absorbance at 340 nm exceeds 0.1 AU and/or it is visibly turbid or contains particles) | + (“+” denotes solubility at the given condition, as determined by UV absorbance being less than 0.1 AU at 340 nm and the sample being clear when manually inspected) | + (“+” denotes solubility at the given condition, as determined by UV absorbance being less than 0.1 AU at 340 nm and the sample being clear when manually inspected) | + (“+” denotes solubility at the given condition, as determined by UV absorbance being less than 0.1 AU at 340 nm and the sample being clear when manually inspected) | –
2 | CC[C@H](C)[C@H](NC(=O)[C@H](C)NC(=O)[C@H](CO)NC(=O)CNC(=O)[C@H](CCC(=O)O)NC(C)=O)C(=O)N[C@H]1CSSC[C@@H](C(=O)N(C)CC(=O)N[C@@H](CCC(=O)O)C(=O)NCC(=O)N[C@@H](CCC(=O)O)C(N)=O)NC(=O)[C@H](CCCNC(=N)N)NC(=O)[C@H](Cc2c[nH]cn2)NC(=O)[C@H](CCC(=O)O)NC(=O)CNC(=O)[C@H](Cc2c[nH]c3ccccc23)NC(=O)[C@H](CC(=O)O)NC(=O)[C@H](CCC(N)=O)NC(=O)[C@H](Cc2c[nH]c3ccccc23)NC(=O)[C@H]([C@@H](C)CC)NC1=O [Compound 44] (Ac-EGSAICIWQDWGEHRC[Sar]EGE-NH2; disulfide 6-16) | > 6.60 | − (“−” denotes lack of solubility at the given condition, as UV absorbance at 340 nm exceeds 0.1 AU and/or it is visibly turbid or contains particles) | − (“−” denotes lack of solubility at the given condition, as UV absorbance at 340 nm exceeds 0.1 AU and/or it is visibly turbid or contains particles) | + (“+” denotes solubility at the given condition, as determined by UV absorbance being less than 0.1 AU at 340 nm and the sample being clear when manually inspected) | + (“+” denotes solubility at the given condition, as determined by UV absorbance being less than 0.1 AU at 340 nm and the sample being clear when manually inspected) | + (“+” denotes solubility at the given condition, as determined by UV absorbance being less than 0.1 AU at 340 nm and the sample being clear when manually inspected) | –
3 | CC[C@H](C)[C@@H]1NC(=O)[C@@H](NC(=O)[C@H](Cc2ccccc2)NC(C)=O)CSSC[C@@H](C(=O)N[C@H](C(=O)NCC(=O)N[C@@H](C)C(=O)N[C@@H](CCC(=O)O)C(=O)N[C@@H](CO)C(=O)N[C@@H](CCCCNC(=O)COCCOCCNC(=O)COCCOCCNC(=O)CC[C@H](NC(=O)CCCCCCCCCCCCCCC(=O)O)C(=O)O)C(N)=O)[C@@H](C)O)NC(=O)[C@H](CCCNC(=N)N)NC(=O)[C@H](Cc2c[nH]cn2)NC(=O)[C@H](CCC(=O)O)NC(=O)CNC(=O)[C@H](Cc2c[nH]c3ccccc23)NC(=O)[C@H](CC(=O)O)NC(=O)[C@H](CCC(N)=O)NC(=O)[C@H](Cc2cn(C)c3ccccc23)NC1=O [Compound 102] (Ac-FCI[Trp(1-Me)]QDWGEHRCTGAESK([AEEA-AEEA-γGlu-C16 diacid])-NH2; disulfide 2-12) | > 7.00 | − (“−” denotes lack of solubility at the given condition, as UV absorbance at 340 nm exceeds 0.1 AU and/or it is visibly turbid or contains particles) | + (“+” denotes solubility at the given condition, as determined by UV absorbance being less than 0.1 AU at 340 nm and the sample being clear when manually inspected) | + (“+” denotes solubility at the given condition, as determined by UV absorbance being less than 0.1 AU at 340 nm and the sample being clear when manually inspected) | + (“+” denotes solubility at the given condition, as determined by UV absorbance being less than 0.1 AU at 340 nm and the sample being clear when manually inspected) | + (“+” denotes solubility at the given condition, as determined by UV absorbance being less than 0.1 AU at 340 nm and the sample being clear when manually inspected) | –
4 | CC[C@H](C)[C@@H]1NC(=O)[C@@H](NC(=O)[C@H](Cc2ccc(O)cc2)NC(C)=O)CSSC[C@@H](C(=O)N[C@H](C(=O)NCC(=O)N[C@@H](C)C(=O)N[C@@H](CCC(=O)O)C(=O)N[C@@H](CO)C(N)=O)[C@@H](C)O)NC(=O)[C@H](CCCNC(=N)N)NC(=O)[C@H](Cc2c[nH]cn2)NC(=O)[C@H](CCC(=O)O)NC(=O)CNC(=O)[C@H](Cc2c[nH]c3ccccc23)NC(=O)[C@H](CC(=O)O)NC(=O)[C@H](CCC(N)=O)NC(=O)[C@H](Cc2ccc3ccccc3c2)NC1=O [Compound 65] (Ac-YCI[2Nal]QDWGEHRCTGAES-NH2; disulfide 2-12) | > 7.00 | − (“−” denotes lack of solubility at the given condition, as UV absorbance at 340 nm exceeds 0.1 AU and/or it is visibly turbid or contains particles) | − (“−” denotes lack of solubility at the given condition, as UV absorbance at 340 nm exceeds 0.1 AU and/or it is visibly turbid or contains particles) | + (“+” denotes solubility at the given condition, as determined by UV absorbance being less than 0.1 AU at 340 nm and the sample being clear when manually inspected) | + (“+” denotes solubility at the given condition, as determined by UV absorbance being less than 0.1 AU at 340 nm and the sample being clear when manually inspected) | + (“+” denotes solubility at the given condition, as determined by UV absorbance being less than 0.1 AU at 340 nm and the sample being clear when manually inspected) | –
5 | CC[C@H](C)[C@H](NC(C)=O)C(=O)N[C@H]1CSSC[C@@H](C(=O)N[C@H](C(N)=O)[C@@H](C)O)NC(=O)[C@H](CCCNC(=N)N)NC(=O)[C@H](Cc2c[nH]cn2)NC(=O)[C@H](C)NC(=O)CNC(=O)[C@H](Cc2c[nH]c3ccccc23)NC(=O)[C@H](CC(=O)O)NC(=O)[C@H](CCC(N)=O)NC(=O)[C@H](Cc2c[nH]c3ccccc23)NC(=O)[C@H]([C@@H](C)CC)NC1=O [Compound 1] (Ac-ICIWQDWGAHRCT-NH2; disulfide 2-12) | > 6.60 | + (“+” denotes solubility at the given condition, as determined by UV absorbance being less than 0.1 AU at 340 nm and the sample being clear when manually inspected) | − (“−” denotes lack of solubility at the given condition, as UV absorbance at 340 nm exceeds 0.1 AU and/or it is visibly turbid or contains particles) | − (“−” denotes lack of solubility at the given condition, as UV absorbance at 340 nm exceeds 0.1 AU and/or it is visibly turbid or contains particles) | − (“−” denotes lack of solubility at the given condition, as UV absorbance at 340 nm exceeds 0.1 AU and/or it is visibly turbid or contains particles) | − (“−” denotes lack of solubility at the given condition, as UV absorbance at 340 nm exceeds 0.1 AU and/or it is visibly turbid or contains particles) | 6.82
6 | CC[C@H](C)[C@@H]1NC(=O)[C@@H](NC(=O)[C@H](Cc2ccc(O)cc2)NC(C)=O)CSSC[C@@H](C(=O)N[C@H](C(=O)NCC(=O)N[C@@H](C)C(=O)N[C@@H](CCC(=O)O)C(=O)N[C@@H](CO)C(N)=O)[C@@H](C)O)NC(=O)[C@H](CCCNC(=N)N)NC(=O)[C@H](Cc2c[nH]cn2)NC(=O)[C@H](CCC(=O)O)NC(=O)CNC(=O)[C@H](Cc2c[nH]c3ccccc23)NC(=O)[C@H](CC(=O)O)NC(=O)[C@H](CCC(N)=O)NC(=O)[C@H](Cc2cn(C)c3ccccc23)NC1=O [Compound 62] (Ac-YCI[Trp(1-Me)]QDWGEHRCTGAES-NH2; disulfide 2-12) | > 7.00 | − (“−” denotes lack of solubility at the given condition, as UV absorbance at 340 nm exceeds 0.1 AU and/or it is visibly turbid or contains particles) | − (“−” denotes lack of solubility at the given condition, as UV absorbance at 340 nm exceeds 0.1 AU and/or it is visibly turbid or contains particles) | + (“+” denotes solubility at the given condition, as determined by UV absorbance being less than 0.1 AU at 340 nm and the sample being clear when manually inspected) | + (“+” denotes solubility at the given condition, as determined by UV absorbance being less than 0.1 AU at 340 nm and the sample being clear when manually inspected) | + (“+” denotes solubility at the given condition, as determined by UV absorbance being less than 0.1 AU at 340 nm and the sample being clear when manually inspected) | –
